The text below walks through data of patent US20160074405A1, “COMPOSITIONS AND METHODS FOR THE TREATMENT OF DRUG-INDUCED HAND-FOOT SYNDROME” (Duke University, priority 2009, published 2016).

Series [1] can be described thus: PPE grade observed in the treated patients under anti-cancer drug. Format: in vivo, human. The settings on record: individual patient before sildenafil. As to the method: (§1) The first patient had both metastatic pancreatic cancer and a history of mild Raynaud's syndrome.
(§2) The third patient was a person with a gastro-intestinal stromal tumor (GIST) refractory to imatinib, who was being treated with sunitinib. […] They were treated with topical 2% sildenafil three times daily. To ensure activity in the setting of potentially significant costs for custom formulation, this patient applied topical sildenafil to only their left hand. […] This patient later was dosed with 1% topical sildenafil once per week. In addition, this patient experienced sunitinib-induced gastrointestinal toxicities (enteritis, diarrhea), which were treated with oral sildenafil to allow systemic absorption. The initial dose was 50 mg oral sildenafil daily. […] Thereafter lower doses were used on an as needed basis, including a quarter tablet (50 mg size) given once or twice per week.
(§3) A fourth patient was a person with metastatic angiosarcoma, who was treated with sunitinib for over four years.

The conditions of series [2]: patients treated with the agent; cited from earlier work.
The nature of series [3]: Topical sildenafil treatment of patients with drug-induced PPE (case reports). The series is classed as in vivo, human. As to the method: Four patients were treated with topical sildenafil for PPE, two with PPE related to capecitabine and two with PPE related to sunitinib. […] This initial clinical experience was outside the context of formal clinical trials, since no such trials were available.
as §1
Administration of 5FU was held due to the severity and persistence of the hand-foot syndrome. Topical sildenafil was applied to only the left hand.
as §2, §3

Series [4] in a line: Oral sildenafil treatment of sunitinib-induced gastrointestinal toxicities and hand-foot syndrome (case report). Format: in vivo, human. The settings on record: third patient; 50 mg oral sildenafil daily. As to the method: as §2
Series [5] can be described thus: Side effects of sildenafil treatment in the PPE patients. The series is classed as in vivo, human. How it is done:
The third patient was a person with a gastro-intestinal stromal tumor (GIST) refractory to imatinib, who was being treated with sunitinib. Despite a gratifying response to sunitinib, they experienced grade 3 sunitinib-related PPE that required frequent dose holding and reduction. They were treated with topical 2% sildenafil three times daily. To ensure activity in the setting of potentially significant costs for custom formulation, this patient applied topical sildenafil to only their left hand. […] After only 3 doses (1 day) they noticed an improvement on the tenderness and redness of their hands. […] The improvement was “like day and night.” The right hand had all of these complications. These were severe enough that the patient had difficulty physically closing their hand more than halfway due to skin thickening as well as pain. Their left hand was completely flexible. After administration to both hands, they were able for the first time in many months to shake hands and make a first without difficulty or pain and they restarted playing their guitar in their church choir. This patient later was dosed with 1% topical sildenafil once per week. In addition, this patient experienced sunitinib-induced gastrointestinal toxicities (enteritis, diarrhea), which were treated with oral sildenafil to allow systemic absorption. The initial dose was 50 mg oral sildenafil daily. […] Thereafter lower doses were used on an as needed basis, including a quarter tablet (50 mg size) given once or twice per week.
Since each of these patients initially had only one affected skin region treated, followed by treatment of the other similarly affected regions, each patient was able to serve as her/his own control.

On to `CCCCCOC(=O)Nc1nc(=O)n([C@@H]2O[C@H](C)[C@@H](O)[C@H]2O)cc1F` [capecitabine], for which the “PPE grade under anti-cancer treatment” value in series [1] is recorded as 2-3 grade. Besides, in series [2], the “frequency of any grade (grade 1-3) PPE” value is on record as ≤ 54% and the “frequency of severe (grade 3) PPE” value is given as ≤ 17%.

On to `CCCc1nn(C)c2c(=O)[nH]c(-c3cc(S(=O)(=O)N4CCN(C)CC4)ccc3OCC)nc12` [sildenafil], for which the “patient's pain and size and depth of the digital ulcers” value in series [3] (first patient (capecitabine, Raynaud's), topical 2% applied to ulcers, within a week) is reported as “marked improvement”. For the same compound, the “PPE of the treated palm” value in series [3] (first patient, topical, full palm of one hand) is on record as “significant improvement”. In series [3] (fourth patient (sunitinib 37.5 mg per day, grade 1 at start), topical 2% in cold cream base), the “PPE of treated right hand and foot” value is on record as “improved markedly”. Besides, the “time to marked improvement of treated right hand and foot” value in series [3] (fourth patient, topical 2% in cold cream base) is recorded as 1-2 weeks. The “pain and redness of the left hand” value in series [3] (second patient (capecitabine/5FU regimens), topical to left hand only, by day 8) is given as “improvement”. For the same compound, the “hand-foot syndrome in both hands” value in series [3] (second patient, by day 72) was “resolved”. Besides, in series [3] (third patient (sunitinib, grade 3 PPE), topical 2% three times daily, left hand, after 3 doses (1 day)), the “tenderness and redness of hands” value is listed as “improvement”. Besides, the “multiple blisters, cracks, and callousness” value in series [3] (third patient, topical 2% three times daily, after 4 weeks) is “resolved essentially completely”. In addition, in series [3] (third patient, topical 2% three times daily, by one week), the “pain, redness and blisters” value is given as “markedly improved”. Besides, the PPE-related symptoms entry in series [3] (topical sildenafil, patients with capecitabine- or sunitinib-related PPE) was “significantly improved”. Further, in series [4], the “gastrointestinal toxicities and hand-foot syndrome” value is on record as “rapidly improved”; the “time to improvement of gastrointestinal toxicities and hand-foot syndrome” value is ≤ 1 days. In series [5] (all treated patients), the “adverse impact on cancer's response to treatment” value is “no patient had any suggestion of an adverse impact” and the “local or systemic side effects” value is “No local or systemic side effects”. Also, in series [5] (third patient, topical 2% three times daily, month of treatment), the “side effects such as headache, chest pain, lightheadedness, spontaneous erections” value was “no side effects”.

As for `CNC(=O)c1cc(Oc2ccc(NC(=O)Nc3ccc(Cl)c(C(F)(F)F)c3)cc2)ccn1` [sorafenib], in series [2], the “frequency of any grade (grade 1-3) PPE” value is ≤ 30% and the “frequency of severe (grade 3) PPE” value is on record as ≤ 8%.

Regarding `CCN(CC)CCNC(=O)c1c(C)[nH]c(/C=C2\C(=O)Nc3ccc(F)cc32)c1C` [sunitinib], the “PPE grade under anti-cancer treatment” value in series [1] was determined as 3 grade. In addition, in series [2], the “frequency of any grade (grade 1-3) PPE” value is reported as “up to 21%” and the “frequency of severe (grade 3) PPE” value is recorded as “up to 5%”.
